Measured values reported in US8404708B2, “Dual NK1/NK3 receptor antagonists” (Hoffmann-La Roche Inc., priority 2004, dated 2013).

Assays:
human NK1 receptor = human NK1 receptor (Homo sapiens, UniProt P25103); assay: NK1 receptor binding, [3H]substance P displacement, CHO cell membranes; settings: first value of the cell pKi NK1/NK3; human NK1 receptor, [3H]substance P
[1] = target: T1, Recombinant human NK3 (hNK3) receptor (Homo sapiens, UniProt P29371); assay: NK3 receptor binding, [3H]SR142801 displacement, membrane preparations; settings: second value of the cell pKi NK1/NK3; hNK3 receptor, [3H]SR142801
T1 construct: expressed in transfected cells
T1 sequence (P29371 1-465): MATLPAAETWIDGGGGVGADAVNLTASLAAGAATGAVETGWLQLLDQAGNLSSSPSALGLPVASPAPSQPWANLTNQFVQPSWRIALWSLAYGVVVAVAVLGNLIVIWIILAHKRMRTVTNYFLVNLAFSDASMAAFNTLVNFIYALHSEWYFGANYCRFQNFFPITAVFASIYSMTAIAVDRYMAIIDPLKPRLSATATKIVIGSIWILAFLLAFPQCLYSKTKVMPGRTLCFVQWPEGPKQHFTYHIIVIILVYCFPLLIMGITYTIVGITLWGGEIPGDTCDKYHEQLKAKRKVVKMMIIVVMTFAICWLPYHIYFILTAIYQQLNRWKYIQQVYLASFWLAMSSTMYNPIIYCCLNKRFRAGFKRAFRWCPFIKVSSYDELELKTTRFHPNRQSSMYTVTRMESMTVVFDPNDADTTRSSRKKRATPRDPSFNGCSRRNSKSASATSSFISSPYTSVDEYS
How it was run: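 hNK3 membranes (~2.5 μg/well) incubated 90 min at room temperature in 50 mM Tris-HCl pH 7.4 with 0.1% BSA, 4 mM MnCl2, 1 μM phosphoramidon. Nonspecific binding defined with 10 μM SB222200; bound [3H]SR142801 separated by filtration on PEI-soaked GF/C filters and counted by scintillation.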

human NK1 receptor, sequence (P25103 whole entry): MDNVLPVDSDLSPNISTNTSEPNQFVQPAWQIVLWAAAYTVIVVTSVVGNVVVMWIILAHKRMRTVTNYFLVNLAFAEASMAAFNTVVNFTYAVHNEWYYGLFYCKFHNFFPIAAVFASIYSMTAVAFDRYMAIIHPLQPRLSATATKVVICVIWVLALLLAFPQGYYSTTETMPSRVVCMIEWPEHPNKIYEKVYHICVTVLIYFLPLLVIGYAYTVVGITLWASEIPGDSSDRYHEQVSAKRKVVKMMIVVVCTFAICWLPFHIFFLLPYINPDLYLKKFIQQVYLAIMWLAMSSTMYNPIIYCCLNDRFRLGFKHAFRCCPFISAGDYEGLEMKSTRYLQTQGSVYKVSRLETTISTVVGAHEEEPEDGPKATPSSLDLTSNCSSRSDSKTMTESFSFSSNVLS

Ki (human NK1 receptor) [nM] | Ki [1] [nM] | Compound
1.45 | 3.24 | Cc1cc(F)ccc1-c1cc(NCCO)ncc1N(C)C(=O)C(C)(C)c1cc(C(F)(F)F)cc(C(F)(F)F)c1 [Example 68, 2-(3,5-Bis-trifluoromethyl-phenyl)-N-[4-(4-fluoro-2-methyl-phenyl)-6-(2-hydroxy-ethylamino)-pyridin-3-yl]-N-methyl-isobutyramide]
1.12 | 14.5 | CN(C(=O)C(C)(C)c1cc(C(F)(F)F)cc(C(F)(F)F)c1)c1cnc(NCCO)cc1-c1ccc(F)cc1Cl [Example 69, 2-(3,5-Bis-trifluoromethyl-phenyl)-N-[4-(2-chloro-4-fluoro-phenyl)-6-(2-hydroxy-ethylamino)-pyridin-3-yl]-N-methyl-isobutyramide]
2 | 4.07 | CN(C(=O)C(C)(C)c1cc(C(F)(F)F)cc(C(F)(F)F)c1)c1cnc(NCCO)cc1-c1ccc(Cl)cc1Cl [Example 70, 2-(3,5-Bis-trifluoromethyl-phenyl)-N-[4-(2,4-dichloro-phenyl)-6-(2-hydroxy-ethylamino)-pyridin-3-yl]-N-methyl-isobutyramide]
2.04 | 9.12 | C[C@H](O)CNc1cc(-c2ccc(Cl)cc2Cl)c(N(C)C(=O)C(C)(C)c2cc(C(F)(F)F)cc(C(F)(F)F)c2)cn1 [Example 71, (S)-2-(3,5-Bis-trifluoromethyl-phenyl)-N-[4-(2,4-dichloro-phenyl)-6-(2-hydroxy-propylamino)-pyridin-3-yl]-N-methyl-isobutyramide]
0.724 | 26.3 | C[C@H](O)CNc1cc(-c2ccccc2Cl)c(N(C)C(=O)C(C)(C)c2cc(C(F)(F)F)cc(C(F)(F)F)c2)cn1 [Example 72, (S)-2-(3,5-Bis-trifluoromethyl-phenyl)-N-[4-(2-chloro-phenyl)-6-(2-hydroxy-propylamino)-pyridin-3-yl]-N-methyl-isobutyramide]
0.871 | 7.41 | C[C@@H](O)CNc1cc(-c2ccccc2Cl)c(N(C)C(=O)C(C)(C)c2cc(C(F)(F)F)cc(C(F)(F)F)c2)cn1 [Example 73, (R)-2-(3,5-Bis-trifluoromethyl-phenyl)-N-[4-(2-chloro-phenyl)-6-(2-hydroxy-propylamino)-pyridin-3-yl]-N-methyl-isobutyramide]
1.7 | 12.3 | CN(C(=O)C(C)(C)c1cc(C(F)(F)F)cc(C(F)(F)F)c1)c1cnc(NCC(C)(C)O)cc1-c1ccccc1Cl [Example 75, 2-(3,5-Bis-trifluoromethyl-phenyl)-N-[4-(2-chloro-phenyl)-6-(2-hydroxy-2-methyl-propylamino)-pyridin-3-yl]-N-methyl-isobutyramide]
1.58 | 10.7 | CCC(O)CNc1cc(-c2ccccc2Cl)c(N(C)C(=O)C(C)(C)c2cc(C(F)(F)F)cc(C(F)(F)F)c2)cn1 (stereo not shown) [Example 76, 2-(3,5-Bis-trifluoromethyl-phenyl)-N-[4-(2-chloro-phenyl)-6-(2-hydroxy-butylamino)-pyridin-3-yl]-N-methyl-isobutyramide]
0.646 | 4.79 | Cc1cc(F)ccc1-c1cc(NC[C@H](C)O)ncc1N(C)C(=O)C(C)(C)c1cc(C(F)(F)F)cc(C(F)(F)F)c1 [Example 77, (S)-2-(3,5-Bis-trifluoromethyl-phenyl)-N-[4-(4-fluoro-2-methyl-phenyl)-6-(2-hydroxy-propylamino)-pyridin-3-yl]-N-methyl-isobutyramide]
1.35 | 10.5 | C[C@@H](CO)Nc1cc(-c2ccccc2Cl)c(N(C)C(=O)C(C)(C)c2cc(C(F)(F)F)cc(C(F)(F)F)c2)cn1 [Example 79, (S)-2-(3,5-Bis-trifluoromethyl-phenyl)-N-[4-(2-chloro-phenyl)-6-(2-hydroxy-1-methyl-ethylamino)-pyridin-3-yl]-N-methyl-isobutyramide]
1.26 | 8.91 | C[C@H](CO)Nc1cc(-c2ccccc2Cl)c(N(C)C(=O)C(C)(C)c2cc(C(F)(F)F)cc(C(F)(F)F)c2)cn1 [Example 80, (R)-2-(3,5-Bis-trifluoromethyl-phenyl)-N-[4-(2-chloro-phenyl)-6-(2-hydroxy-1-methyl-ethylamino)-pyridin-3-yl]-N-methyl-isobutyramide]
3.39 | 1.74 | Cc1cc(F)ccc1-c1cc(N(CCO)CCO)ncc1N(C)C(=O)C(C)(C)c1cc(C(F)(F)F)cc(C(F)(F)F)c1 [Example 84, N-[6-[Bis-(2-hydroxy-ethyl)-amino]-4-(4-fluoro-2-methyl-phenyl)-pyridin-3-yl]-2-(3,5-bis-trifluoromethyl-phenyl)-N-methyl-isobutyramide]
2.34 | 2.29 | Cc1cc(F)ccc1-c1cc(N(CCO)CCCO)ncc1N(C)C(=O)C(C)(C)c1cc(C(F)(F)F)cc(C(F)(F)F)c1 [Example 85, 2-(3,5-Bis-trifluoromethyl-phenyl)-N-{4-(4-fluoro-2-methyl-phenyl)-6-[(2-hydroxy-ethyl)-(3-hydroxy-propyl)-amino]-pyridin-3-yl}-N-methyl-isobutyramide]

The next lines start with the compound.

Compound | Ki (human NK1 receptor) [nM] | Ki [1] [nM]
CC(C)C[C@@H](CO)Nc1cc(-c2ccccc2Cl)c(N(C)C(=O)C(C)(C)c2cc(C(F)(F)F)cc(C(F)(F)F)c2)cn1 [Example 59, (S)-2-(3,5-Bis-trifluoromethyl-phenyl)-N-[4-(2-chloro-phenyl)-6-(1-hydroxymethyl-3-methyl-butylamino)-pyridin-3-yl]-N-methyl-isobutyramide] | 3.24 | 4.9
CN(C(=O)C(C)(C)c1cc(C(F)(F)F)cc(C(F)(F)F)c1)c1cnc(N[C@H]2CC[C@H](O)CC2)cc1-c1ccccc1Cl [Example 60, trans-2-(3,5-Bis-trifluoromethyl-phenyl)-N-[4-(2-chloro-phenyl)-6-(4-hydroxy-cyclohexylamino)-pyridin-3-yl]-N-methyl-isobutyramide] | 1.26 | 7.94
CC(=O)N1CCN(c2cc(-c3ccccc3Cl)c(N(C)C(=O)C(C)(C)c3cc(C(F)(F)F)cc(C(F)(F)F)c3)cn2)CC1 [Example 61, N-[6-(4-Acetyl-piperazin-1-yl)-4-(2-chloro-phenyl)-pyridin-3-yl]-2-(3,5-bis-trifluoromethyl-phenyl)-N-methyl-isobutyramide] | 0.417 | 14.1
CN(C(=O)C(C)(C)c1cc(C(F)(F)F)cc(C(F)(F)F)c1)c1cnc(N2CCN(C(=O)C3CC3)CC2)cc1-c1ccccc1Cl [Example 62, 2-(3,5-Bis-trifluoromethyl-phenyl)-N-[4-(2-chloro-phenyl)-6-(4-cyclopropanecarbonyl-piperazin-1-yl)-pyridin-3-yl]-N-methyl-isobutyramide] | 1.02 | 6.61
CC(=O)N1CCCN(c2cc(-c3ccccc3Cl)c(N(C)C(=O)C(C)(C)c3cc(C(F)(F)F)cc(C(F)(F)F)c3)cn2)CC1 [Example 63, N-[6-(4-Acetyl-[1,4]diazepan-1-yl)-4-(2-chloro-phenyl)-pyridin-3-yl]-2-(3,5-bis-trifluoromethyl-phenyl)-N-methyl-isobutyramide] | 1.82 | 1.17
CN(C(=O)C(C)(C)c1cc(C(F)(F)F)cc(C(F)(F)F)c1)c1cnc(N2CCC[C@H]2CN2CCCC2)cc1-c1ccccc1Cl [Example 64, (S)-2-(3,5-Bis-trifluoromethyl-phenyl)-N-[4-(2-chloro-phenyl)-6-(−2-pyrrolidin-1-ylmethyl-pyrrolidin-1-yl)-pyridin-3-yl]-N-methyl-isobutyramide] | 1 | 2.88
CN(C(=O)C(C)(C)c1cc(C(F)(F)F)cc(C(F)(F)F)c1)c1cnc(N2CC[C@H](N(C)C)C2)cc1-c1ccccc1Cl [Example 65, (S)-2-(3,5-Bis-trifluoromethyl-phenyl)-N-[4-(2-chloro-phenyl)-6-(3-dimethylamino-pyrrolidin-1-yl)-pyridin-3-yl]-N-methyl-isobutyramide] | 1.15 | 2.75
CN(C(=O)C(C)(C)c1cc(C(F)(F)F)cc(C(F)(F)F)c1)c1cnc(NC(CO)CO)cc1-c1ccccc1Cl [Example 81, 2-(3,5-Bis-trifluoromethyl-phenyl)-N-[4-(2-chloro-phenyl)-6-(2-hydroxy-1-hydroxymethyl-ethylamino)-pyridin-3-yl]-N-methyl-isobutyramide] | 2.09 | 5.62
CN(C(=O)C(C)(C)c1cc(C(F)(F)F)cc(C(F)(F)F)c1)c1cnc(N(CCO)CCO)cc1-c1ccccc1Cl [Example 82, N-[6-[Bis-(2-hydroxy-ethyl)-amino]-4-(2-chloro-phenyl)-pyridin-3-yl]-2-(3,5-bis-trifluoromethyl-phenyl)-N-methyl-isobutyramide] | 0.933 | 0.813
Cc1ccccc1-c1cc(N(CCO)CCO)ncc1N(C)C(=O)C(C)(C)c1cc(C(F)(F)F)cc(C(F)(F)F)c1 [Example 83, N-{6-[Bis-(2-hydroxy-ethyl)-amino]-4-o-tolyl-pyridin-3-yl}-2-(3,5-bis-trifluoromethyl-phenyl)-N-methyl-isobutyramide] | 1.17 | 1.1
